Results from patent US11051515B2, “3-acyl-benzamides and their use as herbicides” (Bayer Aktiengesellschaft, priority 2017, dated 2021).

Legend:
CYPES = assay: Pre-emergence action against CYPES; type: in vivo, Cyperus esculentus; conditions: for pest or weed control at 320 g/ha: Cyperus esculentus, 504 h, pre-emergence, dosage 320 g/ha, scored visually after 3 weeks vs untreated controls, read-out: Pre-emergence action against CYPES (herbicidal activity); for Herbicidal efficacy against CYPES: 80 g of a.i./ha
Outline: (§1)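 Seeds sown in sandy loam in wood-fiber pots and covered with soil. Greenhouse growth; visual damage scored after 3 weeks versus untreated controls (100% = dead, 0% = like control).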

PHBPU = assay: Post-emergence action against PHBPU; type: in vivo, Pharbitis purpurea; conditions: for pest or weed control at 80 g/ha: Ipomoea purpurea, 504 h, post-emergence, dosage 80 g/ha
Outline: (§2)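 Weeds grown in sandy loam in greenhouse, treated at one-leaf stage (2–3 weeks after sowing) with WP or EC formulations sprayed as aqueous suspension/emulsion at 600 to […] water with 0.2% wetting agent. Visual rating after about 3 weeks versus untreated controls, as % herbicidal action (100% = plants dead, 0% = like control).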

SETVI = assay: Post-emergence action against SETVI; type: in vivo, Setaria viridis; conditions: for pest or weed control at 80 g/ha: Setaria viridis, 504 h, post-emergence, dosage 80 g/ha, visual assessment about 3 weeks after treatment vs untreated controls, read-out: Post-emergence action against SETVI (herbicidal action in percent)
Outline: as §2

VIOTR = assay: Post-emergence action against VIOTR; type: in vivo, Viola tricolor; conditions: for pest or weed control at 80 g/ha: Viola tricolor, 504 h, post-emergence, dosage 80 g/ha
Outline: as §2

AMARE = assay: Post-emergence action against AMARE; type: in vivo, Amaranthus retroflexus; conditions: for pest or weed control at 80 g/ha: Amaranthus retroflexus, 504 h, post-emergence, dosage 80 g/ha, visual assessment about 3 weeks after treatment vs untreated controls, read-out: Post-emergence action against AMARE (herbicidal action in percent); for Herbicidal efficacy against AMARE: 5 g of a.i./ha
Outline: as §2

LOLMU [1] = assay: Post-emergence action against LOLMU; type: in vivo, Lolium multiflorum; conditions: Lolium multiflorum, 504 h, dosage 80 g/ha, visual assessment about 3 weeks after treatment vs untreated controls, read-out: Post-emergence action against LOLMU (herbicidal action in percent)
Outline: as §2

STEME = assay: Pre-emergence action against STEME; type: in vivo, Stellaria media; conditions: for pest or weed control at 320 g/ha: Stellaria media, 504 h, Dosage 320 g/ha, pre-emergence
Outline: as §1

POLCO = assay: Post-emergence action against POLCO; type: in vivo, Polygonum convolvulus; conditions: Fallopia convolvulus, 504 h; post-emergence, dosage 80 g/ha
Outline: as §2

LOLRI [2] = assay: Pre-emergence action against LOLRI; type: in vivo, Lolium rigidum; conditions: Lolium rigidum, 504 h, dosage 320 g/ha, scored visually after 3 weeks vs untreated controls, read-out: Pre-emergence action against LOLRI (herbicidal activity)
Outline: as §1

LOLRI [3] = assay: Post-emergence action against LOLRI; type: in vivo, Lolium rigidum; conditions: Lolium rigidum, 504 h, dosage 80 g/ha, visual assessment about 3 weeks after treatment vs untreated controls, read-out: Post-emergence action against LOLRI (herbicidal action in percent)
Outline: as §2

HORMU [4] = assay: Pre-emergence action against HORMU; type: in vivo, Hordeum murinum; conditions: Hordeum murinum, 504 h, Dosage 320 g/ha
Outline: as §1

DIGSA [5] = assay: Post-emergence action against DIGSA; type: in vivo, Digitaria sanguinalis; conditions: dosage 80 g/ha, visual assessment about 3 weeks after treatment vs untreated controls
Outline: as §2

DIGSA [6] = assay: Pre-emergence action against DIGSA; type: in vivo, Digitaria sanguinalis; conditions: dosage 320 g/ha, scored visually after 3 weeks vs untreated controls
Outline: as §1

LOLMU [7] = assay: Pre-emergence action against LOLMU; type: in vivo, Lolium multiflorum; conditions: Lolium multiflorum, 504 h, dosage 320 g/ha, scored visually after 3 weeks vs untreated controls, read-out: Pre-emergence action against LOLMU (herbicidal activity)
Outline: as §1

HORMU [8] = assay: Post-emergence action against HORMU; type: in vivo, Hordeum murinum; conditions: dosage 80 g/ha
Method: Seeds of monocotyledonous and dicotyledonous weed and crop plants are laid out in sandy loam soil in wood-fiber pots, covered with soil and cultivated in a greenhouse under good growth conditions. 2 to 3 weeks after sowing, the test plants are treated at the one-leaf stage. The compounds of the invention, formulated in the form of wettable powders (WP) or as emulsion concentrates (EC), are then sprayed onto the green parts of the plants in the form of an aqueous suspension or emulsion at a water application rate equating to […], with addition of 0.2% wetting agent. After the test plants have been left to stand in the greenhouse under optimal growth conditions for about 3 weeks, the action of the preparations is assessed visually in comparison to untreated controls (herbicidal action in percent (%): 100% activity=the plants have died, 0% activity=like control plants). […] At the same time, inventive compounds leave Gramineae crops such as barley, wheat, rye, millet/Sorghum, corn or rice virtually undamaged when applied post-emergence, even at high active ingredient dosages. In addition, some substances are also harmless to dicotyledonous crops such as soya, cotton, oilseed rape, sugar beet or potatoes. Some of the compounds according to the invention have high selectivity and are therefore suitable for controlling unwanted vegetation in agricultural crops by the post-emergence method. The data of Tables B18 to B34 below illustrate, in an exemplary manner, the […] herbicidal action of the compounds according to the invention, the herbicidal activity being stated in percent.

[9] = Table V18, post-emergence, 20 g of a.i./ha
[10] = Table V16, post-emergence, 5 g of a.i./ha
[11] = Table V16, post-emergence, 20 g of a.i./ha

SMILES	pest or weed control at 320 g/ha (CYPES) [%]	pest or weed control at 80 g/ha (PHBPU) [%]	pest or weed control at 80 g/ha (SETVI) [%]	pest or weed control at 80 g/ha (VIOTR) [%]	pest or weed control at 80 g/ha (AMARE) [%]	pest or weed control at 80 g/ha (LOLMU [1]) [%]	pest or weed control at 320 g/ha (STEME) [%]	pest or weed control at 80 g/ha (POLCO) [%]	pest or weed control at 320 g/ha (LOLRI [2]) [%]	pest or weed control at 80 g/ha (LOLRI [3]) [%]	pest or weed control at 320 g/ha (HORMU [4]) [%]	pest or weed control at 320 g/ha (LOLMU [7]) [%]	other results
Cc1c(C(=O)Nc2nnnn2C)ccc(S(C)(=O)=O)c1C(=O)C1CC1 [1-9]	80	100	100	100	90	90	80						Herbicidal efficacy against CYPES (CYPES; Table V6, pre-emergence): 70; Herbicidal efficacy against PHBPU (PHBPU; [9]): 100; Herbicidal efficacy against SETVI (SETVI; [9]): 100; Herbicidal efficacy against VIOTR (VIOTR; Table V17, post-emergence, 5 g of a.i./ha): 100
CCCC(=O)c1c(C(F)(F)F)ccc(C(=O)Nc2nnnn2C)c1C [1-16]		100	90	100	100		100	100	100	80	90		Post-emergence action against DIGSA (herbicidal action in percent) (DIGSA [5]): 90%; Pre-emergence action against DIGSA (herbicidal activity) (DIGSA [6]): 100%
COc1c(C(=O)Nc2nnnn2C)ccc(C(F)(F)F)c1C(=O)C1CC1 [1-50]	100	100	100	100	90	90	100	100				100	
CSc1c(C(=O)Nc2nnnn2C)ccc(C(F)(F)F)c1C(C)=O [1-58]	100	100	100	100	100	80	100					90	
CSc1c(C(=O)Nc2nnnn2C)ccc(C(F)(F)F)c1C(=O)C1CC1 [1-60]	100	90	100	90	100		100	100	100	100	100		Post-emergence action against HORMU (HORMU [8]): 100
CSc1c(C(=O)Nc2nnnn2C)ccc(C(F)F)c1C(=O)C1CC1 [1-67]	90	80	100	100	100		100	100	100	100	80		Post-emergence action against HORMU (HORMU [8]): 100
CC(=O)c1c(S(C)(=O)=O)ccc(C(=O)Nc2nnnn2C)c1Cl [1-127]	90	100	80	100	100		90					80	Herbicidal efficacy against CYPES (CYPES; Table V1, pre-emergence): 90; Herbicidal efficacy against CYPES (CYPES; Table V3, pre-emergence): 90; Herbicidal efficacy against PHBPU (PHBPU; [10]): 70; Herbicidal efficacy against PHBPU (PHBPU; [11]): 100; Herbicidal efficacy against VIOTR (VIOTR; [10]): 100; Herbicidal efficacy against VIOTR (VIOTR; [11]): 100; Herbicidal efficacy against AMARE (AMARE; Table V14, post-emergence): 100; Herbicidal efficacy against STEME (STEME; Table V4, pre-emergence, 20 g of a.i./ha): 70
Cn1nnnc1NC(=O)c1ccc(S(C)(=O)=O)c(C(=O)C2CC2)c1Cl [1-129]	100	100	100	100	100	80	100					100	Herbicidal efficacy against CYPES (CYPES; Table V3, pre-emergence): 100; Herbicidal efficacy against SETVI (SETVI; Table V15, post-emergence, 5 g of a.i./ha): 100; Herbicidal efficacy against AMARE (AMARE; Table V15, post-emergence): 100
CC(=O)c1c(C(F)(F)F)ccc(C(=O)Nc2nnnn2C)c1Cl [1-137, 3-acetyl-2-chloro-N-(1-methyl-1H-tetrazol-5-yl)-4-(trifluoromethyl)benzamide]	100	100	100	100	90	100	100	100				100	
Cn1nnnc1NC(=O)c1ccc(C(F)(F)F)c(C(=O)C2CC2)c1Cl [1-141]	100	100	100	100	100	100	100	100				100	
CC(=O)c1c(C(F)F)ccc(C(=O)Nc2nnnn2C)c1Cl [1-164]	100	90	90	100	100		100	90	100	90	90		
CCC(=O)c1c(C(F)F)ccc(C(=O)Nc2nnnn2C)c1Cl [1-165]		90	100	90	90		100	100	100	80	90		Post-emergence action against DIGSA (herbicidal action in percent) (DIGSA [5]): 100%; Pre-emergence action against DIGSA (herbicidal activity) (DIGSA [6]): 100%
Cn1nnnc1NC(=O)c1ccc(C(F)F)c(C(=O)C2CC2)c1Cl [1-168]	90	100	100	100	100		100	100	100	100	100		Post-emergence action against HORMU (HORMU [8]): 100
